Laboratory results reported in patent US20100189675A1, “COSMETIC USE OF AN IMIDOPERCARBOXYLIC ACID DERIVATIVE AS DESQUAMATING AGENT” (L'Oreal, priority 2007, published 2010).

Tested on: corneocytes
Assay: In vitro test of desquamating efficacy (corneocytes liberated, expressed as protein concentration)
Assay type: cell-based
Description: An in vitro test was carried out in order to determine the efficacy of phthalimidoperoxycaproic acid compared with a composition comprising 30% of glycolic acid and 70% of water. The number of corneocytes liberated is expressed as protein concentration. After applying a composition comprising 17% of phthalimidoperoxycaproic acid, the protein concentration is about 320 μg/ml, while it is about 210 μg/ml for the composition comprising glycolic acid.

| Compound | number of corneocytes liberated expressed as protein concentration (composition comprising 30% of glycolic acid and 70% of water) | number of corneocytes liberated expressed as protein concentration (after applying a composition comprising 17% of phthalimidoperoxycaproic acid) | desquamating efficacy compared with reference (compared with glycolic acid (AG) at 30%) |
| --- | --- | --- | --- |
| O=C(O)CO [glycolic acid, reference compound] | about 210 μg/ml |  |  |
| O=C(CCCCCN1C(=O)c2ccccc2C1=O)OO [phthalimidoperoxycaproic acid] |  | about 320 μg/ml | high desquamating efficacy greater than the reference glycolic acid |
